Reference: patent US11065211B2, “Isoxylitones mediated neurogenesis” (priority 2018, dated 2021)

Columns and labels:
Assay type in all cases: cell-based, rat
Cocul-CTX cells = experiment: AlamarBlue proliferation assay; conditions: 24 h, FIG. 4
Description: (§1) Wistar rats (150-200 gm) were used to isolate bone marrow (BM). Rats were sacrificed and their femurs were removed aseptically. The bone marrow (BM) was flushed from the shaft of the bone by clipping of the epiphysial ends and flushing using a 26-gauge needle with ˜2 ml of Dulbecco's Modified Eagle's medium (DMEM) supplemented with 5% FBS, 1% penicillin/streptomycin solution, 1% sodium pyruvate and L-glutamine. The BM was then centrifuged for 8 minutes at 1000 rpm. Following centrifugation, cell pellet was collected and 1 ml of fresh DMEM was added. The cell viability was checked using trypan blue exclusion method. The cells were then divided into three equal parts. One part was co-cultured with freshly isolated hippocampal cells in T75 cm^2 flask, 2nd with freshly isolated cortical cells and the third portion (BM cells only) was cultured as a control. The cell density for co-cultures was set at 140,000 cells/ml for each type of culture. The cultured flasks were then incubated at 37° C. and 5% CO2. After 4-5 days, floating hematopoietic cells and dead debris/tissues of hippocampus and cortex were removed and bone marrow stromal cells (BMSCs) were recovered due to their tendency to adhere. Medium was replaced after every 3 to 4 days till cells became 80-90% confluent.
(§2) AlamarBlue (AB), a water-soluble dye having resazurin salt was used to evaluate the effect of isoxylitones on the proliferation of the cultured cells. AB measures mitochondrial reductase activity of live cells. The resazurin has ability to enter the cytosol of viable cell and converted to the reduced fluorescent form resorufin by mitochondrial enzyme activity by accepting electrons from NADPH, FADH, FMNH, NADH as well as from the cytochromes. […] The amount of fluorescence produced is proportional to the number of living cells (Al-Nasiry, Geusens, Hanssens, Luyten, Pijnenborg, 2007). […] After incubation, the fluorescence intensity in each well was recorded at an excitation wavelength of 570 nm and an emission wavelength of 600 nm. The rate of cell proliferation was expressed as the relative fluorescence intensity. […] The blank media fluorescence measurement was subtracted from fluorescence measurements of cells from the same run.
(§3) Formula used to calculate the percentage reduction of AB using absorbance readings:
(§4) [formula] Where: O1=molar extinction coefficient (E) of oxidized alamarBlue® (Blue) at 570 nm O2=E of oxidized alamarBlue® at 600 nm A1=absorbance of test wells at 570 nm A2=absorbance of test wells at 600 nm P1=absorbance of positive growth control well (cells plus alamarBlue® but no test agent) at 570 nm P2=absorbance of positive growth control well (cells plus alamarBlue® but no test agent at 600 nm

Cocul-HP cells = experiment: AlamarBlue proliferation assay; conditions: 24 h, FIG. 4
Description: as §1, §2, §3, §4

[1] = tested on: hypoxic hippocampal cells; experiment: In-vitro model of hypoxic pre-conditioning; conditions: 2 h hypoxia then treatment at various concentrations, vs positive control hypoxic cells, FIG. 7
Description: In-vitro model of hypoxic cells was established by hypoxia chamber, which contain 5% carbon dioxide, 1% oxygen and 94% nitrogen. Isolated cortical and hippocampal cells from 1-2 days old rat pups were cultured in 75 cm flask in DMEM medium, after culturing cells were plated on 96 well plate at 7000-8000 viable cells per well and incubated in hypoxia chamber for 2 hour at 37° C. for hypoxic conditioning or oxygen deprivation. Following hypoxic shock, medium was replaced with fresh complete medium. Only cells without hypoxia were kept in normal condition as a control group while untreated hypoxic cells were kept as a positive control cells. Following two hours hypoxia the treatment of isoxylitones at various doses was given to hypoxic cells and MTT assay was used to determine the viability of cells in all treated and control cells. The absorbance of the plate was read by spectrophotometer at 570 nm wavelength.

## CC(=O)C=C1C=C(C)CC(C)(C)C1 (mixture of isomers) [isoxylitones]
Cocul-CTX cells
  highest proliferative dose: 150 µg/mL
Cocul-CTX cells; various doses
  growth proliferation (Alamar blue): dose dependent growth proliferative effect
Cocul-HP cells
  highest proliferative dose: 150 µg/mL
Cocul-HP cells; various doses
  growth proliferation (Alamar blue): dose dependent growth proliferative effect
[1]
  recovery of hypoxic cells (phase-contrast morphology): Recovery of hypoxic cells clearly observed
